Results taken from PMC6510372 (Clinical and Translational Science, 2019).
Entries after “also recorded” stand apart in the source; their conditions may differ.

Columns and labels:
CFTR = conditions: major circulating metabolites in humans; cited from earlier work
CYP3A [1] = assay: Study 770-017: effect of ciprofloxacin; assay type: in vivo, human; conditions: ciprofloxacin 750 mg q12 h with tezacaftor 50 mg q12 h and ivacaftor 150 mg q12 h
CYP3A [2] = assay: Study 006 cohort 1: effect of itraconazole; assay type: in vivo, human; conditions: coadministration of itraconazole vs tezacaftor/ivacaftor alone
P-gp [3] = biological target: T1, P-gp (Homo sapiens, UniProt P08183); assay: Study 006 cohort 2: effect of steady-state tezacaftor/ivacaftor on digoxin; assay type: in vivo; conditions: for CL renal: both, human, urine and plasma, oral
T1 sequence (P08183 whole entry): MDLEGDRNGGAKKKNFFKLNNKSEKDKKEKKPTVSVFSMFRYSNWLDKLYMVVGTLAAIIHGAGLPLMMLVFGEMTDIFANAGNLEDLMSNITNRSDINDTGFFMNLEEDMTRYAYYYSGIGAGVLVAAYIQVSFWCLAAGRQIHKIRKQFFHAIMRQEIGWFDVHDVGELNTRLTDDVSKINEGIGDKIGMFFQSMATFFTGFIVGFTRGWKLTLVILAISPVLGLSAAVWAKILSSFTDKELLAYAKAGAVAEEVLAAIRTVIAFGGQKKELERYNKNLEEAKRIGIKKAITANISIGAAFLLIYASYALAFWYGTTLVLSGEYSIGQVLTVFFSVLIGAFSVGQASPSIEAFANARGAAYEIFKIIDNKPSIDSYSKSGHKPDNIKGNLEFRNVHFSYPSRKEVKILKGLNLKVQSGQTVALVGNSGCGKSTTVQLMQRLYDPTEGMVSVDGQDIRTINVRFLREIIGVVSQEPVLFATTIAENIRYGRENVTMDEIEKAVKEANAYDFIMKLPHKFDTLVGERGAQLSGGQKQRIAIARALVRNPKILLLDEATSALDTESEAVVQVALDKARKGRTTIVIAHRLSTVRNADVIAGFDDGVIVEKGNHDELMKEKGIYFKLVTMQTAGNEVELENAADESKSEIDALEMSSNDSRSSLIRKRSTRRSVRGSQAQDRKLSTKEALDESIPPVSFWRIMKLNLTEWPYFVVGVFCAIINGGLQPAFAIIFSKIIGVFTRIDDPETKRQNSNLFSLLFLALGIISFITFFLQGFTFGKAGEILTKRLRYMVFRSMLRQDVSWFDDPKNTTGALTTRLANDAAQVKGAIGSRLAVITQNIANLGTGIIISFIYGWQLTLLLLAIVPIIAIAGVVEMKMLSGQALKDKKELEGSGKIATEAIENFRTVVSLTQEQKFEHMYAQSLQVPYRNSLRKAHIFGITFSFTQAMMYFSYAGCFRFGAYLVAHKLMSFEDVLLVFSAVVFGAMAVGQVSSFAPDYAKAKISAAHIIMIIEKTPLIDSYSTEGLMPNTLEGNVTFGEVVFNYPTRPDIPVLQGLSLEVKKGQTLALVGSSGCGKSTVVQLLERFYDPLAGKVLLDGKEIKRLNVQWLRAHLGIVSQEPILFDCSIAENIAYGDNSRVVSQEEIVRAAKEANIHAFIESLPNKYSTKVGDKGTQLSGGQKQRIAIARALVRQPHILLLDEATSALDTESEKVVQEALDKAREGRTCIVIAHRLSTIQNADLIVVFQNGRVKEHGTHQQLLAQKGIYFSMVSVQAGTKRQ

[4] = tested on: permeability glycoprotein (P‐gp) efflux transporter; conditions: ref 3 (tezacaftor), ref 6 (ivacaftor); cited from earlier work
[5] = cited from earlier work
CYP3A [6] = conditions: cited from earlier work
CYP3A [7] = conditions: in vitro; cited from earlier work
[8] = cited from earlier work; for Food effect on exposure: fat‐containing food vs fasted state
[9] = Steady-state PK of tezacaftor q.d./ivacaftor twice daily in patients with CF; assay type: in vivo; conditions: human, plasma, oral
CYP3A [10] = conditions: human hepatocytes and recombinant human CYP; no reference given; cited from earlier work
P-gp [11] = biological target: T1, P-gp; conditions: ivacaftor alone, digoxin as model P‐gp substrate; cited from earlier work
CYP3A [12] = conditions: cited from earlier work; remark: listed apart in the source
CYP3A [13] = assay: Study 006 cohort 2: effect of steady-state tezacaftor/ivacaftor on midazolam; assay type: in vivo, human; conditions: midazolam 2.0 mg single dose with/without TEZ 100 mg q.d./IVA 150 mg q12 h, oral, fed, healthy subjects
[14] = digoxin with tezacaftor 100 mg q.d./ivacaftor 150 mg q12 h vs digoxin alone

For `CC(C)(C)c1cc(C(C)(C)C(=O)O)c(O)cc1NC(=O)c1c[nH]c2ccccc2c1=O` [M6‐IVA], the “Pharmacological activity/potency relative to parent” value (CFTR) is listed as “not considered pharmacologically active”, the “GLSM ratio range for AUC and Cmax with/without ciprofloxacin” value (CYP3A [1]) is listed as 0.96−1.10 and the “Decrease of AUC with itraconazole” value (CYP3A [2]) is listed as 30%.

For `C[C@H]1O[C@@H](O[C@H]2[C@@H](O)C[C@H](O[C@H]3[C@@H](O)C[C@H](O[C@H]4CC[C@@]5(C)[C@H](CC[C@@H]6[C@@H]5C[C@@H](O)[C@]5(C)[C@@H](C7=CC(=O)OC7)CC[C@]65O)C4)O[C@@H]3C)O[C@@H]2C)C[C@H](O)[C@@H]1O` [Digoxin, digoxin], the CL renal (P-gp [3]) was 121 mL/min, the CL renal (P-gp [3]; 0.5 mg) was 128 mL/min and the “Increase of AUC with tezacaftor/ivacaftor” value (P-gp [3]; [14]) was 30%. The “Increase of Cmax with tezacaftor/ivacaftor” value (P-gp [3]; [14]) was 32%.

For `CC(C)(C)c1cc(C(C)(C)C)c(NC(=O)c2c[nH]c3ccccc3c2=O)cc1O` [ivacaftor], the “P‐gp inhibition in vitro” value [4] is given as “P‐gp inhibitor in vitro”, the “Eliminated in the feces after metabolic conversion” value ([5]; oral ivacaftor) is given as 87.8% and the “Urinary excretion as unchanged drug” value ([5]; oral ivacaftor) is given as “negligible”. The “Total radioactivity recovered in the urine” value ([5]; oral ivacaftor, ivacaftor and its metabolites) was 6.6%, the “Decrease in exposure with lumacaftor” value (CYP3A [6]; ivacaftor administered with lumacaftor) was ~ 80% and the “Potential for causing DDIs via CYP3A inhibition or induction” value (CYP3A [7]) was “low potential”. The “Food effect on exposure” value [8] was “increased threefold”, the half-life [9] was 9.3 h and the “Metabolic pathway in vitro” value (CYP3A [10]) was “primarily metabolized via CYP3A‐mediated oxidation”. The “P‐gp inhibition, clinical study” value (P-gp [11]) was “weak inhibitor of P‐gp; also recorded: mild P‐gp inhibitor”, the “Increase of AUC with itraconazole” value (CYP3A [2]) was 15.6 fold and the “Increase of Cmax (GLSM ratio) with itraconazole” value (shortened to “Increase of Cmax (GLSM ratio)”) (CYP3A [2]) was 8.6 fold. For the same molecule, the “CYP3A inhibition, clinical data” value (CYP3A [12]; ivacaftor alone) was “weak inhibitor of CYP3A”.

In the case of `CC(C)(C)c1cc(C(C)(C)CO)c(O)cc1NC(=O)c1c[nH]c2ccccc2c1=O` [M1‐IVA], the “Pharmacological activity/potency relative to parent” value (CFTR) is given as “approximately one sixth the potency of ivacaftor”, the “GLSM ratio range for AUC and Cmax with/without ciprofloxacin” value (CYP3A [1]) is given as 0.96−1.10 and the “Increase of AUC with itraconazole” value (CYP3A [2]) is given as 3.6 fold. For the same molecule, the “Increase of Cmax (GLSM ratio)” value (CYP3A [2]) was 1.8 fold.

With `Cc1ncc2n1-c1ccc(Cl)cc1C(c1ccccc1F)=NC2` [Midazolam, midazolam] the “Effect of TEZ/IVA on PK” value (CYP3A [13]) was “↔”, the “GLSM ratio (90% CI) with/without TEZ/IVA, AUC” value (CYP3A [13]) was 1.12 (1.01–1.25) and the “GLSM ratio (90% CI) with/without TEZ/IVA, Cmax” value (CYP3A [13]) was 1.13 (1.01–1.25). For the same molecule, the “Increase of exposure with ivacaftor alone” value (CYP3A [12]; midazolam coadministered with ivacaftor alone) was 50%.

For `Cc1ccc(NC(=O)C2(c3ccc4c(c3)OC(F)(F)O4)CC2)nc1-c1cccc(C(=O)O)c1` [lumacaftor, reference compound], the CYP3A induction (CYP3A [6]) is given as “strong inducer of CYP3A”.

In the case of `CC(C)(CO)c1cc2cc(NC(=O)C3(c4ccc5c(c4)OC(F)(F)O5)CC3)c(F)cc2n1C[C@@H](O)CO` [tezacaftor], the “P‐gp inhibition in vitro” value [4] is given as “not an inhibitor”, the “Administered dose excreted in urine as unchanged drug” value ([5]; oral 14C‐tezacaftor) is given as “Less than 1%” and the “Dose recovered in urine” value ([5]; oral 14C‐tezacaftor, mostly as the M2 metabolite) is given as “about 14%”. The “Dose excreted in the feces” value ([5]; oral 14C‐tezacaftor, unchanged or as the M2 metabolite) was 72%, the Mean overall recovery ([5]; oral 14C‐tezacaftor, up to 21 days after the dose) was 86% and the “Potential for causing DDIs via CYP3A inhibition or induction” value (CYP3A [7]) was “low potential”. The “Dose proportionality of exposure” value ([8]; doses ranging from 10−300 mg) was “approximately dose‐proportional”, the “Food effect on exposure” value [8] was “no food effect” and the half-life [9] was ~156 h. The “Metabolic pathway in vitro” value (CYP3A [10]) was “primarily metabolized via CYP3A‐mediated oxidation; also recorded: direct glucuronidation as a minor metabolic pathway”, the “Increase of AUC with itraconazole” value (CYP3A [2]) was 4 fold and the “Increase of Cmax (GLSM ratio)” value (CYP3A [2]) was 2.8 fold.

In the case of `CC1(C)c2cc3cc(NC(=O)C4(c5ccc6c(c5)OC(F)(F)O6)CC4)c(F)cc3n2CC(CO)OC1O` (centres unmarked) [M1‐TEZ], the “GLSM ratio range for AUC and Cmax with/without ciprofloxacin” value (CYP3A [1]) is reported as 1.17–1.25, the “Decrease of AUC with itraconazole” value (CYP3A [2]) is reported as ~ 40% and the “Decrease of Cmax with itraconazole” value (CYP3A [2]) is reported as ~ 40%.
